The text below walks through data of the CATMoS acute toxicity set (Mansouri et al. 2021).

The series in a line: GHS categories as the set defines them, by LD50: 1 up to 5, 2 up to 50, 3 up to 300, 4 up to 2000, 5 above 2000 mg/kg. The settings on record: rat; in vivo; po.
Regarding `CC1(C)S[C@@H]2[C@H](NC(=O)C(N)c3ccccc3)C(=O)N2[C@H]1C(=O)OC1OC(=O)c2ccccc21` (stereo partly specified), the GHS category was found to be 4.
`COc1ccc(C[C@](C)(NC(N)=O)C(=O)O)cc1OC` showed a GHS category of 5.
To `Cc1cc(C)c(S(=O)(=O)O)cc1N=Nc1cc(S(=O)(=O)O)c2ccccc2c1O` belongs 5; to `CN1CCN(CC(=O)N2c3ccccc3C(=O)Nc3cccnc32)CC1`, 5.
To `O=C1c2ccccc2C(=O)N1CC1=Nc2ccccc2Cc2ccccc21` belongs 5; to `CC(=O)Nc1ncc([N+](=O)[O-])s1`, 4.
The figure for `C=CC(C)(CCC=C(C)C)OC(=O)C(C)C` (stereo unspecified) is 5; for `COC(=O)c1ccc(C#N)cc1[N+](=O)[O-]` it is 5; for `CCCOC(C)OCCc1ccccc1` (stereo unspecified) it is 5.
`CC1Oc2cc(C(=O)C=Cc3ccc(Cl)cc3)ccc2N(C)C1=O` (stereo unspecified) came in with a GHS category of 5.
Compound `CCOC(=O)C(=O)Nc1cc(OC)nc(C)n1` yielded a GHS category of 4.
To `CN1C(=O)CCc2ccc(OCCCN3CCC(Cc4ccccc4)CC3)cc21` belongs 4.
In turn, `CC(=O)NC1CCc2nc(N)sc2C1` (stereo unspecified) returned a GHS category of 5.
Turning to `CCCc1c(Cc2ccc(-c3ccccc3-c3nn[nH]n3)cc2)c(NCCN2CCOCC2)nc2ncnn12`, the GHS category stood at 4.
Compound `C=C(C)CCCC(C)CCOC(C)=O` (stereo unspecified) showed a GHS category of 5.
To `CC1Oc2cc(C(=O)C=Cc3ccccc3)ccc2N(C)C1=O` (stereo unspecified) belongs 5; to `COc1ccccc1OC(=O)c1ccccc1Nc1cccc(C)c1C`, 5.
The figure for `CCCCCCCCCCCCOC(=O)CCSCCC(=O)OCCCCCCCCCCCC` is 5.
The figure for `Cn1cc(-c2ccccc2)c(=O)c(-c2cccc(C(F)(F)F)c2)c1` is 5; for `O=C(c1ccc(Cl)cc1)N1CCN=C1c1ccccc1` it is 4.
Turning to `CCCc1nc2c(C)cc(-c3nc4ccccc4n3C)cc2n1Cc1ccc(-c2ccccc2C#N)cc1`, the GHS category turned out to be 5.
To `Nc1ccc(S(=O)(=O)Nc2ncccn2)cc1` belongs 5; to `NC(=O)O`, 4; to `O=S(=O)(O)c1ccc(/N=N/c2cc(S(=O)(=O)O)c3ccccc3c2O)c2ccccc12`, 5.
The figure for `CCOC(=O)C(=O)Nc1cc(OC)ncn1` is 4; for `COc1ccc(C(=O)NCc2ccc(OCCN(C)C)cc2)cc1OC` it is 5; for `CC(=O)Nc1ccc(S(=O)(=O)O)c2cc(S(=O)(=O)O)c(/N=N/c3ccc(/N=N/c4ccc(S(=O)(=O)O)cc4)c4ccc(S(=O)(=O)O)cc34)c(O)c12` it is 5.
Take `CC1=C(/C=C/C(C)=C/C=C/C(C)=C/C=C/C=C(C)/C=C/C=C(C)/C=C/C2=C(C)CCCC2(C)C)C(C)(C)CCC1`: the GHS category was 5.
The figure for `CCSCCO` is 5.
As to `COc1cc(C(=O)OCCCNCCC(c2ccccc2)c2ccccc2)cc(OC)c1OC`, the GHS category stood at 5.
The figure for `Cn1nnnc1SCCCC(=O)NC1CCCCC1` is 4; for `CCO[Si](CCCOCC1CO1)(OCC)OCC` (stereo unspecified) it is 5.
Consider `Cc1cnc2c(C(=O)O)c(Cl)ccc2c1`, for which the GHS category is listed as 5.
The figure for `O=C(OOC(=O)c1ccc(Cl)cc1Cl)c1ccc(Cl)cc1Cl` is 5.
In turn, `CN(CCNCc1cc(C(C)(C)C)cc(Br)c1O)CCNC(=O)c1nc(Cl)c(N)nc1N` yielded a GHS category of 4.
For the compound `Oc1cc(Cl)cc(Br)c1`, the GHS category was found to be 5.
To `O=[N+]([O-])c1ccc2nc[nH]c2c1` belongs 4; to `C=C1CC[C@@]23C[C@@H]1C(C)(C)[C@@H]2C(O)C[C@H]3C` (stereo partly specified), 5; to `OC[C@H]1CO[C@@](Cn2cncn2)(c2cc3ccccc3o2)O1`, 4.
To `C=C(OCC)C1C(C)(C)CC(=O)CC1(C)C` belongs 5; to `O=S(=O)(O)CCO`, 5; to `COc1cc(NS(=O)(=O)c2ccccc2)c2c(c1N)C(=O)c1ccccc1C2=O`, 5.
The compound `CCCCCC(=Cc1ccccc1)C(OCC)OCC` gave a GHS category of 5.
With `CCCCCCCC/C=C\CCCCCCCC#N`, the GHS category amounted to 5.
With `CC(O)(CC(=O)O)c1ccc(C2CCCCC2)c(Cl)c1` (stereo unspecified), the GHS category turned out to be 4.
The figure for `CCCC1CCCC(=O)O1` (stereo unspecified) is 5; for `CCC(=O)OC(C)(C)Cc1ccccc1` it is 5.
To `COc1cc([N+](=O)[O-])c(OC)cc1Cl` belongs 5.
The figure for `CC(C)(CCn1c(=O)[nH]c2ccccc21)NCC(O)COc1cccc2ccccc12` (stereo unspecified) is 5; for `CCCCCCCC(O)CCO` (stereo unspecified) it is 5; for `CO[C@@]1(NC(=O)C2SC(=C(C(N)=O)C(=O)O)S2)C(=O)N2C(C(=O)O)=C(CSc3nnnn3C)CS[C@@H]21` (stereo partly specified) it is 5.
In turn, `CC1CC(NC(N)=O)NC(=O)N1` (stereo unspecified) registered a GHS category of 5.
The compound `Nc1c[n+](N2CCOCC2)no1` displayed a GHS category of 4.
To `CCOC(=O)C(=O)Nc1cc(OC)nc(OC)n1` belongs 4; to `CCCCCCCCCC(=O)OCC(CC)(COC(=O)CCCCCCC)COC(=O)CCCCCCC`, 5; to `O=C(O)NN1C(CCCOc2ccc(F)cc2)C[C@H](O)[C@@H]2CCCC[C@H]21` (stereo partly specified), 5.
To `C/C=C(\C)C(=O)OCCc1ccccc1` belongs 5; to `CCC(C#N)(CCN(CC=C(C)C)CC=C(C)C)c1cccc2ccccc12` (stereo unspecified), 4.
To `CCC1(c2ccc(O)cc2)NC(=O)NC1=O` (stereo unspecified) belongs 5.
`O=C(CCCCC(=O)N(CCO)CCO)N(CCO)CCO` had a GHS category of 5.
The compound `CC1C(C)(C)C2CCc3cncnc3C2C1(C)C` (stereo unspecified) returned a GHS category of 4.
As to `NC(=O)N=NC(N)=O`, the GHS category came out at 5.
The figure for `COC(=O)C(C)CCC(=O)N(C)C` (stereo unspecified) is 5; for `O=C(O)C(c1ccccc1Cl)N1CCc2sccc2C1` (stereo unspecified) it is 5.
The figure for `O=C(O)c1cc(=O)c2c(OCC(O)COc3cccc4oc(C(=O)O)cc(=O)c34)cccc2o1` is 5; for `CCN(C(=O)CCCSc1nnnn1C)c1ccccc1` it is 4; for `COc1ccc(CC(C)NCC(O)c2ccc(O)c(CO)c2)cc1` (stereo unspecified) it is 4.
Regarding `CCCCCCCCCCCCCCCC(=O)O[C@@H]1C[C@@H](C(=O)O)N(C(=O)CCCCCCCCCCCCCCC)C1`, the GHS category amounted to 5.
To `CCCC(=O)c1ccc2[nH]c(=O)oc2c1` belongs 5; to `O=S(=O)(O)Cc1ccccc1`, 4.
The figure for `COC(=O)C1=C(C)NC(C)=C(C(=O)OC(C)C)C1c1cccc2nonc12` (stereo unspecified) is 5; for `c1coc(CNc2[nH]cnc3ncnc2-3)c1` it is 5.
`CC(=O)OC1C=C(C)C2CC(=C(C)C)CC2C(C)C1` (stereo unspecified): the GHS category is reported as 5.
The figure for `CCCCCCOc1ccc(-c2nc(-c3ccccc3)nc(-c3ccccc3)n2)c(O)c1` is 5; for `CC(C)c1cc2c(cc1S(=O)(=O)O)[C@@]1(C)CCC[C@@](C)(C(=O)O)[C@@H]1CC2` it is 5; for `O=C(O)Cc1ccc(OCC(O)CO)c(Cl)c1` (stereo unspecified) it is 5.
In turn, `CCOC(=O)CNc1nc(Cl)nc(NC(C)C)n1` came in with a GHS category of 5.
Compound `COc1cccc(OC)c1C(=O)NC(=O)Nc1c(F)cccc1F` showed a GHS category of 4.
The figure for `CC(C)(C)NC(=O)[C@@H]1CN(Cc2cccnc2)CCN1C[C@@H](O)C[C@@H](Cc1ccccc1)C(=O)N[C@H]1c2ccccc2C[C@H]1O` is 5; for `CC(C)OC(=O)[C@@H](C)N(C(=O)c1ccccc1)c1ccc(F)c(Cl)c1` it is 5; for `CCC(CC)Nc1nnc(-c2ccccc2)c2ccccc12` it is 5.
To `NC(=O)NCCO` belongs 5; to `CC12CCC3C(CC=C4C=C(N5CCCC5)CCC43C)C1CCC2=O` (stereo unspecified), 5; to `CC1(C)CC[C@@]2(C(=O)O)CC[C@@]3(C)C(=CC[C@H]4[C@]5(C)CC[C@@H](O)C(C)(C)[C@H]5CC[C@@]43C)[C@H]2C1` (racemic), 5.
To `[C]` belongs 5.
`CCCCCCOCC(OC)OC` had a GHS category of 5.
As for `NC(=O)Oc1ccc(Cl)cc1C(=O)Oc1ccccc1`, the GHS category turned out to be 5.
The compound `COC(=O)Nc1nc2ccc(OCc3ccccc3)cc2[nH]1` registered a GHS category of 5.
To `O=[N+]([O-])c1c(Cl)cccc1-c1c[nH]cc1Cl` belongs 5.
The compound `CCCCCCCC/C=C\CCCCCCCCCCCC(N)=O` came in with a GHS category of 5.
Regarding `O=c1[nH]c(CCl)nc2sc3c(c12)CCCC3`, the GHS category is listed as 5.
The figure for `CC(C)CCCCCCCOCCCNCCCN` is 3; for `CCCCC(CC)C(c1ccc(O)cc1)c1ccc(O)cc1` (stereo unspecified) it is 4; for `Clc1ccccc1-c1nc(-c2ccncc2)no1` it is 5.
With `COc1ccc(C2COc3ccccc3O2)cc1O` (stereo unspecified), the GHS category is given as 5.
The figure for `NC(=O)NNC(N)=O` is 5; for `CCC1(C)Oc2cccc(OC(=O)N(C)C(C)=O)c2O1` (stereo unspecified) it is 3.
The figure for `FC(F)(F)c1cccc(C(c2ccccc2)(c2ccccc2)n2cncn2)c1` is 5; for `CS(=O)(=O)c1ccc(C(=O)C2C(=O)CCCC2=O)c(Cl)c1` it is 5.
To `CNC(=O)C(=NNc1ccc([N+](=O)[O-])cc1OC)C(C)=O` belongs 5; to `Nc1c(I)c(C(=O)Cl)c(I)c(C(=O)Cl)c1I`, 5.
In turn, `Cc1ccc2c(-c3ccc(F)cc3)nc(=O)n(C(C)C)c2c1` registered a GHS category of 5.
Take `N#Cc1ccc(NC(=O)Oc2ccccc2)cc1`: the GHS category turned out to be 5.
The figure for `Cc1ccc(OC(N)=O)c(C(=O)Oc2ccccc2)c1` is 5.
To `O=c1nc(Cl)nc(Cl)[nH]1` belongs 5; to `O=C(O)C(=O)C(O)C(O)C(O)CO` (stereo unspecified), 5.
